# System: B16 melanom
# Test: Cytotoxicity test (neutral red assay)
# Type: cell-based
# Details: neutral red assay after melanin test, absorbance at 540 nm
# Procedure: After measurement of the absorbance in the melanin production suppression test of Experimental Example 1, the evaluation sample solution was removed from the plate, and each well was rinsed with DMEM (200 μl, high glucose, containing 10% serum). A medium containing NR (neutral red) was added to each well at 200 μl/well, and the plate was left standing for 2 hours at 37° C., 5% CO2 under a saturated vapor. The medium was removed, and a washing fixative solution (mixture of equal amounts of 2 wt % calcium chloride solution and 2 wt % formalin solution) was added at 200 μl/well. After 1 minute, the washing fixative solution was removed. An NR extract (acetic acid-ethanol, 200 μl/well) was added, and the mixture was shaken in a plateshaker for 15 minutes. NR uptake by viable cells was examined by measuring the absorbance of the NR extract at 540 nm by a microplatereader (Benchmark microplatereader, manufactured by BIORAD). The cytotoxicity of each sample was calculated as a relative percentage of the absorbance of NR extract of the cells added with a given concentration of each sample to the measurement value (absorbance) of a control NR extract (no sample) as 100%.
row,SMILES,cytotoxicity (NR uptake by viable cells)
1,O=C(NCCc1c[nH]c2ccc(O)cc12)c1ccc(O)cc1O [Example 33],showed cytotoxicity
2,O=C(NCCc1c[nH]c2ccc(O)cc12)c1cccc(O)c1O [Example 32],showed cytotoxicity

# System: B16 melanom
# Test: Melanin production suppression test
# Type: cell-based
# Details: B16 melanoma cells, 3 days incubation, absorbance at 450 nm of medium, control = 100%; read-out: 50% melanin production-suppressive concentration IC50
# Procedure: B16 melanom (purchased from Dainippon Sumitomo Pharma Co., Ltd.) was cultured in DMEM (Dulbecco's Modified Eagle Medium, high glucose, containing 10% serum). After confluent, the cells were trypsinized and seeded in a 96-well plate. On the following day, after adhesion of the cells to the plate, the medium was replaced with DMEM containing each evaluation sample (control (no sample addition), sample of each Production Example) at a given evaluation concentration (diluted from […] according to sample), and the cells were incubated for 3 days. The 96-well plate was shaken in a plateshaker for 5 minutes, the absorbance at 450 nm was measured by a microplatereader (Benchmark microplatereader, manufactured by BIORAD), and the amount of melanin in the medium in each well was compared. The absorbance at 3 days after addition of a given concentration of each sample was shown in relative percentage based on the measurement value (absorbance) of control (no sample addition) as 100%. As Comparative Example, a similar test was performed using kojic acid (KoA), 4-hexylresorcinol, CS (N-(p-coumaroyl)serotonin or N-[2-(5-hydroxy-1H-indol-3-yl)ethyl]-3-(4-hydroxyphenyl)-2-propenamide) and FS (N-feruloylcoumaroylserotonin or N-[2-(5-hydroxy-1H-indol-3-yl)ethyl]-3-(4-hydroxy-3-methoxyphenyl-2-propenamide). The results are shown in FIGS. 1 to 5. The concentration necessary for suppressing production of melanin in each sample by 50%, based on the amount of melanin in the control as 100%, was calculated as 50% melanin production-suppressive concentration IC50 (μM). The results are shown in Table 2.
# Kojic acid (KoA) used was purchased from Sigma-Aldrich Japan K.K., 4-n-hexylresorcinol used was purchased from TOKYO CHEMICAL INDUSTRY CO., LTD., and CS and FS used were synthesized by Ajinomoto Co., Inc.
row,IC50 [µM],SMILES
1,42.4,"COc1cc(C=CC(=O)NCCc2c[nH]c3ccc(O)cc23)ccc1O [FS, reference compound]"

# Same assay, conditions: Mus musculus, 72 h; B16 melanoma cells, 3 days incubation, absorbance at 450 nm of medium, control = 100%; read-out: 50% melanin production-suppressive concentration IC50
row,IC50 [µM],SMILES
1,1.9,"O=C(NCCc1c[nH]c2ccc(O)cc12)c1ccc(O)c(O)c1 [Reference Example 2, reference compound]"
2,315,"O=c1cc(CO)occ1O [kojic acid, reference compound]"
3,17.1,O=C(/C=C/c1ccc(O)cc1O)NCCc1c[nH]c2ccccc12 [Example 30]
4,22.4,O=C(NCCc1c[nH]c2ccc(O)cc12)c1cc(O)cc(O)c1 [Example 36]

# Continued, compound first:
row,SMILES,IC50 [µM]
1,"O=C(C=Cc1ccc(O)cc1)NCCc1c[nH]c2ccc(O)cc12 [CS, N-[2-(5-hydroxy-1H-indol-3-yl)ethyl]-3-(4-hydroxyphenyl)-2-propenamide, reference compound]",28.5
2,"Cc1cc(/C=C/C(=O)NCCc2c[nH]c3ccc(O)cc23)ccc1O [Example 17, N-[2-(5-hydroxy-1H-indol-3-yl)ethyl]-3-(3-methyl-4-hydroxyphenyl)-2-propenamide]",14.6
3,O=C(/C=C/c1ccc(O)cc1)NCCc1c[nH]c2ccccc12 [Example 13],21.5
4,"O=C(/C=C/c1ccc(O)cc1O)NCCc1c[nH]c2ccc(O)cc12 [Example 4, N-[2-(5-hydroxy-1H-indol-3-yl)ethyl]-3-(2,4-dihydroxyphenyl)-2-propenamide]",10.7
5,COc1ccc(CCNC(=O)/C=C/c2ccc(O)cc2)cc1 [Example 24],33.3
6,"CCCCCCc1ccc(O)cc1O [4-hexylresorcinol, reference compound]",23.5

# From patent publication US9295624B2, “Amide derivative and whitening agent” (AJINOMOTO CO. INC., priority 2009, dated 2016)
